Patent publication US10478437B2, “Combination therapy to enhance the anticancer efficacy of platinum drugs” (University of Pittsburgh-of the Commonwealth System of …, priority 2014, dated 2019)
Like-named read-outs stand apart in the source and are kept apart here.

What was measured:
[1] = system: cisplatin-resistant ovarian cancer cell line A2780cis; assay: Caspase-3/7 activity assay (apoptotic cell death), compound alone or with cisplatin; type: cell-based, human; settings: for caspase-3/7 activity (Lum), compound with cisplatin / caspase-3/7 activity (Lum), compound alone / caspase-3/7 activity (Lum) with compound and cisplatin (20 μM) / caspase-3/7 activity (Lum) with compound alone: 20 h; for activity in the screen (Caspase-3/7 activity and microscopic examination), active / inactive: alone or in the presence of cisplatin; for activity in the screen (Caspase-3/7 activity and microscopic examination), active / inactive / activity in the Caspase-3/7 activity assay / Caspase-3/7 activity upon combination with cisplatin compared to cisplatin alone or compound alone: in words; for activity in the Caspase-3/7 activity assay: possibly interference with the assay system; for caspase-3/7 activity (Lum) with compound and cisplatin (20 μM) / caspase-3/7 activity (Lum) with compound alone: Table 6; for caspase-3/7 activity (Lum) with compound alone: untreated cells 9 ± 1
Protocol: Cell proliferation was determined using a CyQUANT Direct Cell Proliferation Assay kit (Invitrogen), the activity of caspase-3/7 was measured using a Caspase-Glo 3/7 Assay Systems (Promega, Madison, Wis.), and the MTS calorimetric survival assay was performed using the CellTiter 96 AQueous One Solution Cell Proliferation Assay kit (Promega, Madison, Wis.), according to the manufacturer's instructions. The survival fractions were calculated after setting untreated control cells at 100%. The data were plotted and curve fitted using GraphPad Prism software. To quantify the number of cells with active caspase-3, cells were fixed with 4% paraformaldehyde (Electron microscopy sciences, Hatfield, Pa.), stained with Alexa Fluor-488 conjugated antibody against cleaved caspase-3 (Asp175) (Cell Signaling Technology, Danvers, Mass.) followed by flow cytometry. An FITC Annexin V Apoptosis Detection Kit (BD PharMingen, San Diego, Calif.) was used to quantify apoptotic cells, according to the manufacturer's instructions.
A Caspase-3/7 assay was performed to evaluate the activity of the 36 compounds of FIG. 1 in vitro in the cisplatin-resistant ovarian cancer cell line, A2780cis, alone or in the presence of cisplatin. A microscopic examination of apoptotic morphologic changes was also carried out right before the measurement of Caspase-3/7 activity, in order to confirm that the data on the activation of the Caspase-3/7 following treatment is consistent with morphological change and reflects cell death.

[2] = system: cisplatin-resistant ovarian cancer cell line A2780cis; assay: CellTiter-Blue cell viability assay, compound alone or with cisplatin or carboplatin, 24 h; type: cell-based, human; settings: for viability at 10 µM / viability at 20 µM / viability at 50 µM: Homo sapiens, A2780cis, read-out: survival (%) of cells with compound alone; for viability at 10 µM / viability at 20 µM / viability at 50 µM / survival (%) of cells with compound and cisplatin (20 μM) / Survival (%) of cells with compound and carboplatin (200 μM) / survival (%) of cells with compound alone: 24 h; for response in the CellTiter-Blue cell viability assay: in words
Protocol: Data were expressed as mean±standard deviation. A Student's t test was used for the comparisons between the treatment with the combination of analogs with cisplatin and with analogs alone. P<0.05 was considered statistically significant. Combination index was calculated using CompuSyn software. A value of 0.3-0.7 for the combination index indicates synergism, 0.1-0.3 indicates strong synergism, and <0.1 indicates very strong synergism (Chou, 2006).
To further validate the activity of the identified 11 active compounds (see FIG. 3), a CellTiter-Blue cell viability assay was performed with increasing concentrations (10 μM, 20 μM and 50 μM) of the disclosed compounds (see FIG. 4 and Table 5). Cisplatin resistant ovarian cancer cells (A2780cis) were treated with a disclosed compound alone, cisplatin alone or a combination of a compound with cisplatin for 24 h to determine the effects of the compounds on cell viability.
Analysis of the effect of the disclosed compounds with another platinum-containing compound, carboplatin, was performed. A2780cis cells were treated with carboplatin alone or with the combination of carboplatin and the disclosed compounds at indicated concentrations for 24 h followed by the analysis of cell viability.

[3] = Table 3, compound 20 μM with 20 μM of cisplatin
[4] = compound 10 μM, untreated cells = 100%
[5] = compound 20 μM, untreated cells = 100%
[6] = compound 50 μM, untreated cells = 100%
[7] = compound 10 μM + cisplatin 20 μM
[8] = compound 20 μM + cisplatin 20 μM
[9] = compound 50 μM + cisplatin 20 μM
[10] = Table 1, compound 20 μM with 20 μM cisplatin
[11] = Table 1, compound 20 μM, mean ± S.D. of triplicates

Compound | caspase-3/7 activity (Lum), compound with cisplatin [1, 3] [Lum] | caspase-3/7 activity (Lum), compound alone ([1]; Table 3, compound 20 μM) [Lum] | caspase-3/7 activity (Lum), compound alone ([1]; Table 4, compound 20 μM) [Lum] | activity in the screen (Caspase-3/7 activity and microscopic examination), active / inactive [1] | viability at 10 µM [2, 4] [%] | viability at 20 µM [2, 5] [%] | viability at 50 µM [2, 6] [%] | survival (%) of cells with compound and cisplatin (20 μM) [2, 7] [%] | survival (%) of cells with compound and cisplatin (20 μM) [2, 8] [%] | survival (%) of cells with compound and cisplatin (20 μM) [2, 9] [%] | caspase-3/7 activity (Lum), compound with cisplatin [1, 10] [Lum] | caspase-3/7 activity (Lum), compound alone [1, 11] [Lum] | other results
CC(C)C(=O)NC(=S)Nc1nc2ccc(Cl)cc2s1 [Compound 2-33] | 23 ± 3 | 11 ± 2 | 11 ± 2 | active | 84.8 ± 4.1 | 77.9 ± 1.1 | 65 ± 6.4 | 92.5 ± 4.8 | 70.4 ± 4.9 | 58.6 ± 7.4 |  |  | activity in the Caspase-3/7 activity assay [1]: lack of activity; response in the CellTiter-Blue cell viability assay [2]: positive response
O=C1NC(=S)NC(=O)C1=Cc1c[nH]c2ccccc12 [Compound 2-7] | 41 ± 3 | 25 ± 1 | 25 ± 1 | active |  |  |  | 91.9 ± 14.0 | 76.1 ± 6.6 | 39.4 ± 5.2 |  |  | viability at 10 µM [2]: 97 ± 1.5%; viability at 20 µM [2]: 93.3 ± 3.6%; viability at 50 µM [2]: 47.2 ± 1.8%
Cc1cccc(-n2c(=S)[nH]c3cc(Cl)ccc3c2=O)c1C [Compound 1-21] |  |  |  | active | 102 ± 1.4 | 100 ± 1.5 | 84.9 ± 2.9 | 90.8 ± 1.4 | 63.1 ± 6.8 | 26.7 ± 2.0 | 90 ± 6 | 17 ± 3 | caspase-3/7 activity (Lum), compound alone ([1]; Table 2, compound 20 μM): 17 ± 3 Lum; Caspase-3/7 activity upon combination with cisplatin compared to cisplatin alone or compound alone [1]: increase in Caspase-3/7 activity
COc1cc(-n2c(=S)[nH]c3ccccc3c2=O)c(Cl)cc1Cl [mdivi-1, reference compound] | 80 ± 11 | 20 ± 3 | 20 ± 3 |  |  |  |  | 87.4 ± 2.9 | 39.2 ± 2.7 | 26.3 ± 3.4 | 102 ± 3 | 28 ± 5 | caspase-3/7 activity (Lum), compound alone ([1]; Table 2, compound 20 μM): 28 ± 5 Lum; caspase-3/7 activity (Lum) with compound and cisplatin (20 μM) ([1]; compound 5 μM + cisplatin 20 μM): 22 ± 2 Lum; caspase-3/7 activity (Lum) with compound alone ([1]; compound 5 μM): 10 ± 1 Lum; caspase-3/7 activity (Lum) with compound and cisplatin (20 μM) [1, 7]: 24 ± 3 Lum; caspase-3/7 activity (Lum) with compound alone ([1]; compound 10 μM): 10 ± 1 Lum; caspase-3/7 activity (Lum) with compound and cisplatin (20 μM) [1, 8]: 84 ± 3 Lum; caspase-3/7 activity (Lum) with compound alone ([1]; compound 20 μM): 24 ± 2 Lum; Survival (%) of cells with compound and carboplatin (200 μM) ([2]; compound 10 μM + carboplatin 200 μM): 92.6 ± 3.5%; survival (%) of cells with compound alone [2, 4]: 98.4 ± 2.4%; Survival (%) of cells with compound and carboplatin (200 μM) ([2]; compound 20 μM + carboplatin 200 μM): 75.1 ± 3.9%; survival (%) of cells with compound alone [2, 5]: 78.4 ± 3.8%; Survival (%) of cells with compound and carboplatin (200 μM) ([2]; compound 50 μM + carboplatin 200 μM): 40.6 ± 3.0%; survival (%) of cells with compound alone [2, 6]: 61.6 ± 4.4%
Cc1ccc(NC(=S)NC(=O)c2cccs2)nc1 [Compound 2-19] | 50 ± 8 | 9 ± 1 | 9 ± 1 | active | 97.3 ± 1.8 | 95.9 ± 2.1 | 95.1 ± 6.4 | 100.4 ± 1.2 | 85.4 ± 9.6 | 53.2 ± 16.0 |  |  | 
O=c1c2ccccc2[nH]c(=S)n1Cc1ccccc1 [Compound 1-30] |  |  |  | active | 95 ± 2.6 | 95.4 ± 0.9 | 98.1 ± 0.9 | 73.4 ± 6.9 | 52.4 ± 1.2 | 53.2 ± 5.0 | 111 ± 8 | 18 ± 2 | caspase-3/7 activity (Lum), compound alone ([1]; Table 2, compound 20 μM): 18 ± 2 Lum; Caspase-3/7 activity upon combination with cisplatin compared to cisplatin alone or compound alone [1]: increase in Caspase-3/7 activity
O=c1c2ccccc2[nH]c(=S)n1Cc1cccnc1 [Compound 1-4] |  |  |  | active | 95.9 ± 2.4 | 95.6 ± 1.3 | 91.8 ± 2.9 | 89.8 ± 0.1 | 61.2 ± 3.4 | 20.9 ± 1.3 | 93 ± 5 | 13 ± 1 | caspase-3/7 activity (Lum), compound alone ([1]; Table 2, compound 20 μM): 13 ± 1 Lum; Caspase-3/7 activity upon combination with cisplatin compared to cisplatin alone or compound alone [1]: increase in Caspase-3/7 activity
COCCCn1c(=S)[nH]c2cc(C(=O)Nc3ccc(F)c(F)c3)ccc2c1=O [Compound 1-16] |  |  |  |  |  |  |  |  |  |  | 18 ± 3 | 10 ± 1 | 
COCCCNC(=S)NC(=O)c1ccc(F)cc1 [Compound 2-15] | 18 ± 3 | 8 ± 1 |  |  |  |  |  |  |  |  |  |  | 
Cc1ccc(NC(=S)NC(=O)c2ccc(F)cc2)nc1 [Compound 2-23] | 22 ± 2 | 7 ± 0 |  | inactive |  |  |  |  |  |  |  |  | 
CCN(CC)CCn1c(=O)[nH]c2ccccc2c1=O [Compound 1-31] |  |  |  |  |  |  |  |  |  |  | 26 ± 4 | 12 ± 1 | 
O=C(NC(=S)Nc1ccccc1N1CCCC1)c1cccs1 [Compound 2-4] | 18 ± 1 | 8 ± 1 |  |  |  |  |  |  |  |  |  |  | 
O=C(NC(=S)Nc1ccccn1)c1ccccc1 [Compound 2-32] | 4 ± 1 | 0 ± 1 | 0 ± 1 | active | 97.2 ± 2.9 | 96 ± 1.7 | 81.8 ± 5.2 | 102.7 ± 3.9 | 64.9 ± 10.6 | 33.4 ± 11.8 |  |  | activity in the Caspase-3/7 activity assay [1]: lack of activity; response in the CellTiter-Blue cell viability assay [2]: positive response
CC(C)(C)C(=O)NC(=S)Nc1sc2c(c1C(N)=O)CCCC2 [Compound 2-20] | 15 ± 2 | 8 ± 1 |  |  |  |  |  |  |  |  |  |  | 
